Results as given in patent publication US20150147792A1, “Betaine Enhancement of Fermentation to make C4 Diacids” (ARCHER DANIELS MIDLAND COMPANY, priority 2012, published 2015).

Tests used:
[1] = tested on: A. succinogenes strain FZ45 830.60; assay: Production fermentation of dextrose to succinic acid, strain FZ45 830.60; type: cell-based, Actinobacillus succinogenes
Source text: In a medium containing 90-155 g/l of dextrose as the primary carbon source supplemented with 15 g/liter of a commercial yeast extract (TASTONE™ 900AG from Sensient, Milwaukee, Wis.) the 830.60 strain was capable of producing a titer of 100 g/l of succinic acid with a 85-90% yield from dextrose at a productivity rate of 2 To 3 g/liter/hour.
For the present work, a variety of media alterations were tried in an attempt to substitute the commercial yeast extract with corn steep liquor and/or with a locally produced homogenized yeast extract made by homogenizing aerobically grown yeast produced incident to ethanol fermentation, and/or by supplementing the media with betaine and/or glutamate. To distinguish commercial yeast extract, which is available from distributors a dry powder, from a homogenate of yeast cells made locally by rupturing yeast cells in liquid suspension, the latter is referred to herein as “local yeast homogenate”
Corn steep liquor (CSL) was used as the target nutrient source to substitute for yeast extract. CSL is a by-product of wet corn milling obtained by steeping corn grain in water containing a small amount of a sulfide compound for several hours. CSL is rich in low molecular weight organic acids, some carbohydrates, vitamins and minerals that are released from the corn grain. The amount of CSL and local yeast homogenate is shown in terms of dry solids basis (dsb) meaning the amount of material added excluding water weight, per liter of fermentation. Glutamate was added in the form of monosodium glutamate (MSG) and betaine was added in the form of the anhydrous base in the amounts shown. Dextrose was present at between 90 and 125 g/l in all starting media.
Local yeast homogenate was obtained by aerobically growing an ethanol producing strain of the bakers yeast S. cerevesiae on dextrose until the culture reached stationary phase, recovering the yeast cells as paste, and homogenizing the yeast paste with an APV Gaulin French press type homogenizer at a pressures of 12,500 psi or greater. The glutamic acid was added in the form of monosodium glutamate, and the betaine was betaine base anhydrous from MP Biomedicals
Inoculum Medium A. succinogenes strain FZ45830,60, provided by MBI International, was grown in two 100 ml serum bottles each containing 50 ml of inoculum medium incubated at 38° C. for 15-24 hours by shaking in a rotary incubator at 180 rpm, which was then used as 5% vol/vol inoculum for final fermenter volume of 2.0 liters in a 7.5 lite fermenter. The inoculum medium was prepared in two steps. In the first step, 4 g of MgCO3 was weighed into a 100 ml Wheaton serum bottle containing 30 ml of distilled water, which was then sealed, autoclaved and cooled. In the second step the remaining ingredients, which were prepared as supplemental sterilized solutions, were added to the serum bottle with a sterile syringe. The supplemental solutions and formulation of the inoculum media are shown below.
The serum bottle was inoculated with 1.5 ml of an overnight culture grown in the same medium. The serum bottle was flushed and overlaid with CO2 before incubation
Seed Medium A New Brunswick EPPENDORF BiOFLO 310-7.5 liter fermenter was inoculated with the 2 serum bottles containing the inoculation culture for initial production fermentation studies or as a seed culture for larger scale fermentations. The operating conditions are listed below:
The seed medium contained 4 g/l CSL dsb, 14 g/l TASTONE 900AG yeast extract, 0.0002 g/l biotin, 10 ml/l 0.5M sodium phosphate buffer and 100 g/l dextrose. The pH was adjusted with a 35% Mg(OH)2 slurry. The seed fermenter was inoculated at 5% v/v from the incubated serum bottle culture and was harvested in the early log phase (e.g., an increase in OD of 3 to 4 units) other measure of early log phase?) Two hundred ml of the seed culture was used to inoculate 4 liters of media in a second 7.5 liter production fermenter. […]

[2] = tested on: Actinobacillus Succinogenes; conditions: osmoprotectant added to media; cited from earlier work

Question: Which results are given for `C[N+](C)(C)CC(=O)O` [betaine, N,N,N-trimethylglycine]?
Answer: succinic acid produced ([1]; betaine 0.1 to 1 g/liter): 70 to 115 g/L; succinic acid produced, concentration ([1]; betaine 0.1 to 1 g/liter): 590 to 980 mM; productivity rate ([1]; betaine 1 g/liter, Table 1): 2.4-2.9 g per liter per hour; titer ([1]; betaine 1 g/liter, Table 1): 90 to 104 g/L; yield from glucose ([1]; betaine 1 g/liter, Table 1): about 85%

Question: Which “effect on yield from glucose” value ([1]; betaine provided as sole non-nutrative supplement) does the source give for `O=C(O)CCCC[C@@H]1SC[C@@H]2NC(=O)N[C@@H]21` [biotin] here?
Answer: The value was “did not statistically increase the yield from glucose”.

Question: Which increase in productivity [2] does the source give for `O=C(O)[C@@H]1CCCN1` [proline] here?
Answer: The increase in productivity was 22%.
